# Numbers after ± are expanded uncertainties.
# What was measured:
# [1] = refractive index (Na D-line) (dimensionless); conditions: 293.15 K; 101.33 kPa; Liquid; Standard Abbe refractometry
# [2] = Crystal; DTA
# [3] = Molar enthalpy of transition or fusion; conditions: Crystal; DSC
Compound,refractive index [1],Normal melting temperature [2] [°C],Molar enthalpy of transition or fusion [3] [kcal/mol]
CN(C)C=O [dimethylformamide],1.4304 ± 0.0004,,
NCCO [2-aminoethan-1-ol],1.4542 ± 0.0004,,
CN1CCCC1=O [N-methylpyrrolidone],1.469 ± 0.0004,,
CCCCCCCC [octane],1.3978 ± 0.0004,,
O=CN1CCOCC1 [N-formylmorpholine],1.4849 ± 0.0004,,
C=C(C)[C@@H]1CC[C@]2(CO)CC[C@]3(C)[C@H](CC[C@@H]4[C@@]5(C)CC[C@H](O)C(C)(C)[C@@H]5CC[C@]43C)[C@@H]12 [betulin],,255.0 ± 0.4,13.2 ± 0.359
CCCCCCCCCCCCCCCC [hexadecane],1.4346 ± 0.0004,,
CCCCCCCCO [octan-1-ol],1.4291 ± 0.0004,,
CCCCCCCCCCCC [dodecane],1.4218 ± 0.0004,,
O [water],1.3329 ± 0.0004,,
CCCCCO [pentan-1-ol],1.4098 ± 0.0004,,
CC#N [acetonitrile],1.3439 ± 0.0004,,
CCC(C)O (stereo not given) [butan-2-ol],1.3983 ± 0.0004,,
CCCCCCCCCO [nonan-1-ol],1.4334 ± 0.0004,,

# From the NIST ThermoML archive (doi:10.1016/j.jct.2016.02.006)
